Data: article PMC4132908, “Genome-wide annotation and functional identification of aphid GLUT-like sugar transporters” (BMC Genomics, 2014)

Molecular target: T1, ApST4 (A. pisum sugar transporter 4) (Acyrthosiphon pisum, UniProt A0A8R2H6Y5)
T1 sequence (A0A8R2H6Y5 64-552): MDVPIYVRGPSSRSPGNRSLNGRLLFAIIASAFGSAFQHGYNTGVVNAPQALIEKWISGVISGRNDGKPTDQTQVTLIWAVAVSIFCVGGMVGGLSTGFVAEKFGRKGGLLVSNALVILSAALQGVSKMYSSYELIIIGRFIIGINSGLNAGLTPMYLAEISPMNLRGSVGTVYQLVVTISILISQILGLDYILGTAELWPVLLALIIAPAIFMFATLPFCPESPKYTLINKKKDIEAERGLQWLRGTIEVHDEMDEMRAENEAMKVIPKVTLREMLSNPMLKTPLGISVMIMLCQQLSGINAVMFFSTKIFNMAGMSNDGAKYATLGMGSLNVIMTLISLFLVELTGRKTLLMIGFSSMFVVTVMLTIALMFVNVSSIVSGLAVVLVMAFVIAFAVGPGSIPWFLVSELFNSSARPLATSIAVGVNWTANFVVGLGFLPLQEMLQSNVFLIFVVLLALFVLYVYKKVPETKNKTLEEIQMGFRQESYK
Experiment: competition with […]-fructose uptake in whole yeast cells
Assay type: cell-based
Conditions: 50 mM 14C-fructose; 100 mM unlabelled competitor; pH 7.0; 30 °C; 10 min

With `OC[C@H]1OC(O)[C@H](O)[C@@H](O)[C@H]1O` (some centres unmarked) [galactose] the “% reduction of 14C-fructose uptake at 100 mM” value was ~ 21%.
In the case of `OC[C@H]1OC(O)[C@@H](O)[C@@H](O)[C@@H]1O` (some centres unmarked) [mannose], the “% reduction of 14C-fructose uptake at 100 mM” value is reported as over 50%.
